# In patent US5434295A (priority 1994, dated 1995):
# “Also recorded” adds a separate entry of the source. Where two headings read alike, the source gives them in different places.
# What was measured:
# [1] = test system: pyramidal cells in CA1 subfield of the hippocampus; experiment: Histopathological evaluation of hippocampus in gerbils after bilateral common carotid artery occlusion; format: in vivo, Mongolian gerbils; settings: drug 30 min after occlusion
# Description: Inhibition of ischemic neuronal damage in gerbils: Temporary blockage of the blood supply to the gerbil brain by surgical ligation of the two major arteries (common carotids) results in transient global forebrain ischemia. Temporary global ischemia produces a delayed, selective degeneration of neurons in the hippocampus, a brain structure essential for memory formation. The ability of various compounds to prevent hippocampal cell loss and the attendant memory deficits is considered a measure of their potency as neuroprotectants in ischemic conditions.
# Mongolian gerbils (male), 65-70 gr (Tumblebrook Farm) underwent the ischemic procedure while anaesthetised with equithisine.
# Common carotid arteries (CCA) were isolated and 3-0 silk suture material was positioned loosely round them. The tips of each loop were tied together, and the suture material was buried beside the trachea. The ventral neck incision was then sutured. In the following day, they were lightly anaesthetised with ether, the neck skin wounds were opened and both CCA were occluded for 10 minutes using small artery clips. During the ischemia and until the animals recovered (regaining righting reflexes), they were maintained in a warm state (36.5°-37.5° C. rectal temperature). […]
# Histopathological evaluation. […] Then, 5 μm sections were cut from the area of the dorsal hippocampus, stained with H&E and cresyl violet, and evaluated according to the following system. The number of viable pyramidal cells in the medial, middle and lateral CA1 subfield of the hippocampus were counted under 400X magnification, along 0.4 mm in both sides. […]
# Statistics. Neuroclinical appearance was analyzed using Wilcoxon Rank Sum Test. The histopathological evaluation was analyzed using One-Way ANOVA followed by Duncan's Test.
# Gerbils were scored for their clinical symptoms following the ischemic insult according to the system described by Rudolphi et al. (Table 4). Each animal was evaluated daily over 4 consecutive days (Day 1 being the day of CCA occlusion). […]
# [2] = test system: NMDA-induced toxicity in primary cerebral cortical cell cultures; experiment: Protection of cortical neurons in culture from NMDA-induced toxicity; format: cell-based; settings: Rattus norvegicus, NMDA 1000 μM; for inhibition at 10 µM: 10 μM compound
# Protocol: Blockage of NMDA toxicity in tissue culture: Neurons can be grown in culture and survive for several weeks. […] The ability of various compounds to prevent the morphological and metabolic changes induced by NMDA is considered a measure of their neuroprotective activity in culture.
# The neuroprotective effects of the compounds of the invention were tested on neurons exposed to various excitotoxins in culture. The compounds tested included HU-259, HU-260, HU-270 and HU-271, which were all shown to have NMDA antagonist properties in mice (Example 13).
# The test drugs were examined for their ability to protect neurons in culture from toxic effects of agonists of the different glutamate receptor subtypes (agonists of ionotropic and/or metabotropic glutamate receptors), e.g. NMDA, AMPA, kainate and quisqualate. The culture conditions and assay conditions were all performed as described in Eshhar et al. (NeuroReport 5, No. 3, 1993). In brief, primary cerebral cortical cell cultures were prepared from 18-20 day old rat fetuses by enzymatic dissociation. Resulting cell suspensions were plated on confluent cortical glial cell feder layer (prepared 2 weeks earlier by a similar method). Neurons were grown in MEM media containing 0.6% glucose, FUDR/Uridine mixture and N2 supplement (insulin, progesterone, putrescine, selenium and transferrin). Cells at 10 days in culture were exposed to the various toxins either alone, or in the presence of the tested compounds. All exposures were carried out at 37° C. for 20-24 hours before assessing neuronal cell damage and neuroprotectant activity. Cell viability was determined morphologically following neuron specific enolase immunostaining of cells using the ABC biotin-avidin complex method, and determined quantitatively by measuring the extent of mitochondrial activity in living cells using the XTT-based assay. XTT is reduced by mitochondrial dehydrogenase to a soluble colored formazan. The density of color formation (O.D.), which is proportional to mitochondrial activity, was measured by a plate ELISA reader. The extent of neuroprotectant activity is expressed as % of cells rescued by the drugs tested.
# Neuroprotectant activity of HU-259 (10 μM)--was assessed using orphological criteria only. Morphological observations (as determined by neuron specific enolase immunostaining) clearly indicated complete neuroprotection (100%).
# [3] = test system: hypobaric anoxia in mice; experiment: Survival of mice exposed to hypobaric anoxia; format: in vivo; settings: 200 mmHg, 5 mg/kg i.p. in MCT oil, 45 min before
# Protocol: Protection against hypobaric anoxia in mice: Exposure of mice to a hypobaric (200 mmHg) atmosphere reduces the amount of oxygen available to the animals and results in death within 1-2 minutes in untreated mice. Pretreatment with compounds that can counteract the effects of oxygen deprivation prolong (double or more) the survival time of mice subjected to this treatment. The increase in survival time is a measure of the potency of the compounds in counteracting anoxic damage in vivo.
# Hypobaric Anoxia was used as a system for testing the neuroprotective effects of test compounds, HU-270 and HU-271. The experimental paradigm was derived from that described by Gotti and Depoortere, Congres de Circ. Cerebrale, Toulouse, 105-107 (1979). Briefly, mice in groups of 5 were placed in a chamber which was equilibrated at an atmospheric pressure of 200 mmHg (by evacuation via a vacuum pump). The mice were observed until they stopped breathing and the time was recorded for each mouse. The test compounds were administered 45 min before introducing the animals into the chamber. In all cases the experiment was performed in a masked vehicle controlled study to avoid bias on the part of the observer. Each mouse received the drug dissolved in MCT oil intraperitoneally at a dose of 5 mg/kg, or the vehicle alone (MCT oil, 5 ml/kg).
# [4] = test system: acetylcholine-muscarinic receptor; format: binding, rat; settings: 100 μM analogue
# [5] = test system: MK-801 sites located at the NMDA receptor ion channel; experiment: Inhibition of [3H]MK-801 binding to rat forebrain membranes; settings: for % inhibition of tritiated ligand binding to membranes, 3[H]-MK-801: 100 μM analogue
# Description: Binding to the NMDA receptor linked channel: Non competitive antagonists of NMDA, the primary example of which is the compound MK-801, bind to a site within the NMDA receptor channel thus preventing the activation of the receptor-channel complex and the consequent neurotoxicity. The ability of various compounds to compete with the binding of tritium labeled MK-801 to brain membranes is considered a measure of their potency as NMDA non-competitive antagonists.
# The association of pinene derivatives with acetylcholine-muscarinic receptor and with MK-801 sites located at the NMDA receptor ion channel.
# Inhibition of ^3 [H]MK-801 binding to rat forebrain membranes by the test HU-211 compounds was carried out as described for HU-211 in Eshhar et al., NeuroReport 5, No. 3, 1993) (Methods section). The test compounds were solubilized in a mixture of ethanol:Emulfor:water (20:3:57).
# [6] = Cortical neurone, read-out: % of cells rescued from NMDA-induced toxicity
Structure (SMILES),histopathological damage / survival of hippocampal cells [1],"inhibition at 10 µM [2, 6] [%]",survival of mice exposed to hypobaric anoxia [3],"inhibition at 1 µM ([2]; Cortical neurone, 1 μM compound, read-out: % of cells rescued from NMDA-induced toxicity (concentration dependence)) [%]","inhibition at 2 µM ([2]; Cortical neurone, 2 μM compound, read-out: % of cells rescued from NMDA-induced toxicity (concentration dependence)) [%]","inhibition at 5 µM ([2]; Cortical neurone, 5 μM compound, read-out: % of cells rescued from NMDA-induced toxicity (concentration dependence)) [%]","% inhibition of tritiated ligand binding to membranes, 3[H]QNB [4] [%]","% inhibition of tritiated ligand binding to membranes, 3[H]-MK-801 [5] [%]","inhibition at 10 µM ([2]; morphological criteria only (neuron specific enolase immunostaining), read-out: % of cells rescued from NMDA-induced toxicity / complete neuroprotection) [%]","Ki ([5]; [3H]MK801 binding, rat forebrain membranes, representative experiment in triplicate (HU259), read-out: inhibition constant (K1)) [µM]"
CCCCCCC(C)(C)c1cc(OC(C)=O)c([C@H]2C=C(C(=O)N(CC)CC)[C@H]3C[C@@H]2C3(C)C)c(OC(C)=O)c1 [HU-270],increased survival of hippocampal cells,0,increased survival; also recorded: statistically significant increase of survival time,–,–,–,–,–,–,–
CCCCCCC(C)(C)c1cc(OC(C)=O)c([C@H]2C=C(C(=O)NCCO)[C@H]3C[C@@H]2C3(C)C)c(OC(C)=O)c1 [HU-271],increased survival of hippocampal cells,100,increased survival; also recorded: statistically significant increase of survival time,25,27,68,98.3,46.3,–,–
"CCCCCCC(C)(C)c1cc(OC(C)=O)c([C@H]2C=C(C(=O)O)[C@H]3C[C@@H]2C3(C)C)c(OC(C)=O)c1 [(+)-4-[4-DMH-2,6 diacetoxyphenyl]-2-carboxy-6,6-dimethylbicyclo[3.1.1]hept-2-en]",significantly decreased compared to control groups,–,–,–,–,–,98.0,90.0,100,7.6
